The experiment relates to Wnt. Kind of experiment: Wnt reporter assay: SP5 promoter-driven firefly luciferase in SW480 cells. The format is cell-based. To be noted: Homo sapiens; SW480 colon cancer cells with SP5 promoter (TCF/LEF) luciferase reporter; 24-40 h after compound addition; normalized to DMSO; read-out: Wnt inhibition, IC50. An excerpt: Another screening assay for Wnt activity is described as follows. Reporter cell lines can be generated by stably transducing cells of cancer cell lines (e.g., colon cancer) with a lentiviral construct that include a wnt-responsive promoter driving expression of the firefly luciferase gene.
Lentiviral constructs can be made in which the SP5 promoter, a promoter having eight TCF/LEF binding sites derived from the SP5 promoter, is linked upstream of the firefly luciferase gene. The lentiviral constructs can also include a hygromycin resistance gene as a selectable marker. The SP5 promoter construct can be used to transduce SW480 cells, a colon cancer cell line having a mutated APC gene that generates a truncated APC protein, leading to de-regulated accumulation of β-catenin.
Cultured SW480 cells bearing a reporter construct can be distributed at approximately 10,000 cells per well into 96 well or 384 well plates. Compounds from a small molecule compound library can then be added to the wells in half-log dilutions using a ten micromolar top concentration. A series of control wells for each cell type receive only buffer and compound solvent. Twenty-four to forty hours after the addition of compound, reporter activity for luciferase can be assayed, for example, by addition of the BrightGlo luminescence reagent (Promega) and the Victor3 plate reader (Perkin Elmer). Readings can be normalized to DMSO only treated cells, and normalized activities can then be used in the IC50 calculations.
In general terms: Reporter assays use an easily measured gene product as a stand-in for the process of interest.

As to `Cc1ccncc1-c1cnc2[nH]nc(-c3nc4ccncc4[nH]3)c2c1` [Compound 29, 3-(3H-imidazo[4,5-c]pyridin-2-yl)-5-(4-methylpyridin-3-yl)-1H-pyrazolo[3,4-b]pyridine], the IC50 (as a rule, the concentration that gives 50% inhibition) lay within 3 to 5 µM.

Take `c1cncc(-c2cnc3[nH]nc(-c4nc5c(-c6cccnc6)cncc5[nH]4)c3c2)c1` [Compound 45]: the IC50 fell in the range of 0.2 to 1.2 µM.

With `c1cncc(-c2cnc3[nH]nc(-c4nc5ccncc5[nH]4)c3c2)c1` [Compound 46], the IC50 is 1 to 2 µM.

On to `CCC(=O)Nc1cncc(-c2cnc3[nH]nc(-c4nc5c(-c6cccnc6)cncc5[nH]4)c3c2)c1` [Compound 47, N-(5-(3-(7-(pyridin-3-yl)-3H-imidazo[4,5-c]pyridin-2-yl)-1H-pyrazolo[3,4-b]pyridin-5-yl)pyridin-3-yl)propionamide], for which the IC50 lay in the range of 7 to 10 µM.

For the molecule `CCC(=O)Nc1cncc(-c2cnc3[nH]nc(-c4nc5c(-c6cccc(F)c6)cncc5[nH]4)c3c2)c1` [Compound 49, N-(5-(3-(7-(3-fluorophenyl)-3H-imidazo[4,5-c]pyridin-2-yl)-1H-pyrazolo[3,4-b]pyridin-5-yl)pyridin-3-yl)propionamide], the IC50 was < 0.005 µM.

`CCC(=O)Nc1cncc(-c2cnc3[nH]nc(-c4nc5c(-c6ccc(F)cc6)cncc5[nH]4)c3c2)c1` [Compound 50, N-(5-(3-(7-(4-fluorophenyl)-3H-imidazo[4,5-c]pyridin-2-yl)-1H-pyrazolo[3,4-b]pyridin-5-yl)pyridin-3-yl)propionamide]: the IC50 is < 0.0015 µM.

Turning to `CCC(=O)Nc1cncc(-c2cnc3[nH]nc(-c4nc5c(-c6ccccc6F)cncc5[nH]4)c3c2)c1` [Compound 51, N-(5-(3-(7-(2-fluorophenyl)-3H-imidazo[4,5-c]pyridin-2-yl)-1H-pyrazolo[3,4-b]pyridin-5-yl)pyridin-3-yl)propionamide], the IC50 is < 0.045 µM.

For `CC(C)C(=O)Nc1cncc(-c2cnc3[nH]nc(-c4nc5ccncc5[nH]4)c3c2)c1` [Compound 52, N-(5-(3-(3H-imidazo[4,5-c]pyridin-2-yl)-1H-pyrazolo[3,4-b]pyridin-5-yl)pyridin-3-yl)isobutyramide], the IC50 was > 10 µM.

On to `CC(C)CC(=O)Nc1cncc(-c2cnc3[nH]nc(-c4nc5ccncc5[nH]4)c3c2)c1` [Compound 53, N-(5-(3-(3H-imidazo[4,5-c]pyridin-2-yl)-1H-pyrazolo[3,4-b]pyridin-5-yl)pyridin-3-yl)-3-methylbutanamide], for which the IC50 was > 10 µM.

With `CCC(=O)Nc1cncc(-c2cnc3[nH]nc(-c4nc5c(N6CCOCC6)cncc5[nH]4)c3c2)c1` [Compound 55, N-(5-(3-(7-morpholino-3H-imidazo[4,5-c]pyridin-2-yl)-1H-pyrazolo[3,4-b]pyridin-5-yl)pyridin-3-yl)propionamide], the IC50 was > 10 µM.

For `CC(C)CC(=O)Nc1cncc(-c2cnc3[nH]nc(-c4nc5c(N6CCN(C)CC6)cncc5[nH]4)c3c2)c1` [Compound 57, 3-methyl-N-(5-(3-(7-(4-methylpiperazin-1-yl)-3H-imidazo[4,5-c]pyridin-2-yl)-1H-pyrazolo[3,4-b]pyridin-5-yl)pyridin-3-yl)butanamide], the IC50 is 1 to 4 µM.

`CC(C)C(=O)Nc1cncc(-c2cnc3[nH]nc(-c4nc5c(N6CCN(C)CC6)cncc5[nH]4)c3c2)c1` [Compound 59, N-(5-(3-(7-(4-methylpiperazin-1-yl)-3H-imidazo[4,5-c]pyridin-2-yl)-1H-pyrazolo[3,4-b]pyridin-5-yl)pyridin-3-yl)isobutyramide]: the concentration for half-maximal inhibition (IC50) lay in the range of 2 to 3 µM.

In the case of `O=C(Nc1cncc(-c2cnc3[nH]nc(-c4nc5c(-c6cccc(F)c6)cncc5[nH]4)c3c2)c1)N1CCOCC1` [Compound 62, N-(5-(3-(7-(3-fluorophenyl)-3H-imidazo[4,5-c]pyridin-2-yl)-1H-pyrazolo[3,4-b]pyridin-5-yl)pyridin-3-yl)morpholine-4-carboxamide], the IC50 was < 0.02 µM.

As for `CN(C)C(=O)Nc1cncc(-c2cnc3[nH]nc(-c4nc5c(-c6cccc(F)c6)cncc5[nH]4)c3c2)c1` [Compound 66, 3-(5-(3-(7-(3-fluorophenyl)-3H-imidazo[4,5-c]pyridin-2-yl)-1H-pyrazolo[3,4-b]pyridin-5-yl)pyridin-3-yl)-1,1-dimethylurea], the IC50 is < 0.015 µM.

(Values after patent publication US9855272B2, “1H-pyrazolo[3,4-B]pyridines and therapeutic uses thereof” (Samumed, LLC, priority 2009, dated 2018).)
